Source: patent US12319703B2, “Macrocyclic fused pyrazoles as Mcl-1 inhibitors” (ASCENTAGE PHARMA (SUZHOU) CO., LTD., priority 2019, dated 2025)
Converted amounts (≈) assume the structure as drawn.

Experiments:
Kinetic solubility assay = type: physicochemical; settings: pH 6.5 PBS buffer, HPLC; for solubility: PBS buffer pH 6.5, aqueous buffer, thermodynamic from solid, read-out: Solubility (pH 6.5, μg/mL)
Experimental: Representative Compounds of the Disclosure were tested in a solubility assay with pH 6.5 PBS buffer. PBS buffer was prepared by dissolving 4.86 g of potassium dihydrogen phosphate and 5.09 g of disodium hydrogen phosphate dodecahydrate in 1 L of ultrapure water to have final pH value of 6.5. In the solubility assay, 0.5 mg of test sample was dissolved in 1 mL of methanol and the stock solution was transferred into 2 mL EP tube, and evaporated at 50° C. for 3 h. To the tube was added 1 mL of PBS buffer and the mixture was stirred and shaken for 1-2 h. The solution was allowed to stand overnight and then filtered before HPLC analysis. Another 1.5 mg of the sample was dissolved in 3 mL of methanol to prepare a calibration curve with a series of concentration range of 5-500 μM. The solubility of each sample was determined by the measured peak area in HPLC.

NCI-H929 cells = experiment: Cell viability assay (NCI-H929 cells), CCK-8; type: cell-based; settings: Homo sapiens, NCI-H929, 24 h, WST, 5% FBS
Experimental: Cell Viability Assay (NCI-H929 Cells)
NCI-H929 cells were obtained from American Type Culture Collection (ATCC). Cells were maintained in the recommended culture medium (RPMI 1640) with 10% FBS and 0.05 mM BME at 37° C. and an atmosphere of 5% CO2.
The effect of Compounds on cell viability was determined using Cell Counting Kit-8 (CCK-8) assay according to the manufacturer's instructions. 95 μL of NCI-H929 cell suspension (20000 cells/well) in culture medium were seeded into 96-well plates and cultured 4 hrs. Each tested compound was serially diluted in DMSO, then 5 μL of the compound or DMSO was diluted in 95 μL medium once more. At last, 5 μL of the compound dilution was added to the corresponding well of the cell plate. After the addition of the tested compound, the cells were incubated at 37° C. in an atmosphere of 5% CO2 for 24 hrs. At the end, 10 μL of CCK-8 solution was added to each well of the plate and incubated for 1-4 hours. The plates were read at 450 nm on the microplate reader (BioTek Synergy 1MF). The readings were normalized to the vehicle cells, and the IC50 was calculated by nonlinear regression analysis using GraphPad Prism 6 software.

OPM-2 cells = experiment: Cell viability assay (OPM-2 cells), CCK-8; type: cell-based; settings: Homo sapiens, OPM-2, 24 h, WST, 5% FBS, read-out: OPM2 (WST, 5% FBS)
Experimental: Cell Viability Assay (OPM-2 Cells)
OPM-2 cells were obtained from Deutsche Sammlung von Mikroorganismen und Zellkulturen GmbH (DSMZ). […]
The effect of representative Compounds of the Disclosure on cell viability was determined using Cell Counting Kit-8 (CCK-8) assay (Shanghai Life iLab Bio Technology) according to the manufacturer's instructions. Each tested compound was serially diluted in culture medium, 100 μL of the compound dilution was added into 96-well plates. 100 μL of an OPM-2 cell suspension (20000 cells/well) in culture medium were seeded into the corresponding well of the plate and the cells were incubated at 37° C. in an atmosphere of 5% CO2 for 24 hours. In the next day, 20 μL of CCK-8 solution was added to each well of the plate and incubated for 4 hours.
The plates were read at 450 nm on the microplate spectrophotometer (SpectraMax plus 384, Molecular devices). The readings were normalized to the vehicle cells, and the IC50 was calculated by nonlinear regression analysis using GraphPad Prism 6 software.

[1] = molecular target: T1, Mcl-1 protein (residues 171-323) (Homo sapiens, UniProt Q07820); experiment: Inhibition of Mcl-1 by fluorescence polarization (FP) competitive binding assay; settings: FAM-Bid tracer 2 nM, Mcl-1 20 nM, 30 min
T1 construct: Tag-free Mcl-1 protein (residues 171-323) was used in the FP assay
Experimental: Inhibition of Mcl-1 by Fluorescence Polarization (FP) Assay.
The method used a fluorescein labelled peptide (FAM-Bid) which binds to the Mcl-1 protein leading to an increased anisotropy measured in milli-polarization (mP) values using a plate reader.
A 10-points serial dilution of each compound was prepared in DMSO and 5 μL solution was transferred into flat bottomed, 96-well back plate (final DMSO concentration 5%). 120 μL of Buffer (PBS, 0.01% BGG (Sigma Cat. #SRE0011), 0.01% Triton X-100), containing the Fluorescein labelled peptide (Final concentration 2 nM) and Mcl-1 protein (final concentration 20 nM) was then added. […] 10-points dose response curves were plotted with GraphPad software using Sigmoidal Dose-Response Model and the IC50 values were determined by nonlinear regression fitting of the competition curves.

T1 sequence (Q07820 171-323): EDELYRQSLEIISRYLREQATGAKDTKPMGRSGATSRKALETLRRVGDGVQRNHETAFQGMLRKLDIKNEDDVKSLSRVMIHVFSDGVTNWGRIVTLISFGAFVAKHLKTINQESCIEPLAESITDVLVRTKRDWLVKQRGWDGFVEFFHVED

| Structure (SMILES) | Solubility (pH 6.5, μg/mL) (Kinetic solubility assay) [μg/mL] | solubility (Kinetic solubility assay) [µg/mL] | IC50 (NCI-H929 cells) [nM] | IC50 (OPM-2 cells) [nM] | IC50 [1] [nM] |
| --- | --- | --- | --- | --- | --- |
| Cn1nc2cc1CSc1cc(c3ccc(F)cc3c1)OCCCc1c(C(=O)O)n(C)c3c(c(Cl)ccc13)-c1c(nn3c1COCC3)CSC2 (atropisomer, axis not shown) [compound 39, (S)-(Z)-1^6-chloro-9^6-fluoro-1^1,6^1-dimethyl-26,27-dihydro-1^1H,2^4H,6^1H-10-oxa-4,8-dithia-2(3,2)-pyrazolo[5,1-c][1,4]oxazina-1(7,3)-indola-6(3,5)-pyrazola-9(3,1)-naphthalenacyclotridecaphane-1^2-carboxylic acid] | <1 | – | – | – | – |
| Cn1nc2cc1CSc1cc(c3ccc(F)cc3c1)OCCCc1c(C(=O)O)n(C)c3c(c(Cl)ccc13)-c1c(nn3c1COCC3)CSC2 (atropisomer, axis not shown) [compound 40, (R)-(Z)-1^6-chloro-9^6-fluoro-1^1,6^1-dimethyl-26,27-dihydro-1^1H,2^4H,6^1H-10-oxa-4,8-dithia-2(3,2)-pyrazolo[5,1-c][1,4]oxazina-1(7,3)-indola-6(3,5)-pyrazola-9(3,1)-naphthalenacyclotridecaphane-1^2-carboxylic acid] | 74 | – | – | – | – |
| Cc1c2c(nn1C)CSCc1cc(n(C)n1)CSc1cc(c3ccccc3c1)OCCCc1c(C(=O)O)n(C)c3c-2c(Cl)ccc13 [AZD5991, (Z)-1^6-chloro-1^1,2^1,2^5,6^1-tetramethyl-1H,2^1H,6^1H-10-oxa-4,8-dithia-1(7,3)-indola-2(4,3),6(3,5)-dipyrazola-9(3,1)-naphthalenacyclotridecaphane-1^2-carboxylic acid, reference compound] | – | < 1 | 47 | – | – |
| Cc1nc2sc1CSc1cc(c3ccccc3c1)OCCCc1c(C(=O)O)n(C)c3c(c(Cl)ccc13)-c1c(nn3c1CCC3)CSC2 [compound 5, 1^6-chloro-1^1,6^4-dimethyl-2^5,2^6-dihydro-1^1H,2^4H-10-oxa-4,8-dithia-6(2,5)-thiazola-1(7,3)-indola-2(3,2)-pyrrolo[1,2-b]pyrazola-9(3,1)-naphthalenacyclotridecaphane-1^2-carboxylic acid] | – | 2 (≈ 2.85 µM) | 960 | 973 | 11.3 |
| Cn1nc2cc1CSCc1nn3c(c1-c1c(Cl)ccc4c(c(C(=O)O)n(C)c14)CCCOc1cc(cc4ccccc14)SC2)CCC3 [compound 7, (Z)-1^6-chloro-1^1,6^1-dimethyl-2^5,2^6-dihydro-1^1H,2^4H,6^1H-10-oxa-4,8-dithia-1(7,3)-indola-2(3,2)-pyrrolo[1,2-b]pyrazola-6(5,3)-pyrazola-9(3,1)-naphthalenacyclotridecaphane-1^2-carboxylic acid] | – | 1 (≈ 1.46 µM) | 1130 | 774 | 150 |
| Cc1oc2nc1CSc1cc(c3ccccc3c1)OCCCc1c(C(=O)O)n(C)c3c(c(Cl)ccc13)-c1c(nn3c1CCC3)CSC2 [compound 11, (Z)-1^6-chloro-1^1,6^5-dimethyl-2^5,2^6-dihydro-1^1H,2^4H-10-oxa-4,8-dithia-6(2,4)-oxazola-1(7,3)-indola-2(3,2)-pyrrolo[1,2-b]pyrazola-9(3,1)-naphthalenacyclotridecaphane-1^2-carboxylic acid] | – | < 1 | 3540 | > 10000 | 10.6 |
| Cn1nc2cc1CSc1cc(c3cc(F)ccc3c1)OCCCc1c(C(=O)O)n(C)c3c(c(Cl)ccc13)-c1c(nn3c1COCC3)CSC2 [compound 16, (Z)-1^6-chloro-9^7-fluoro-1^1,6^1-dimethyl-2^6,2^7-dihydro-1^1H,2^4H,6^1H-10-oxa-4,8-dithia-2(3,2)-pyrazolo[5,1-c][1,4]oxazina-1(7,3)-indola-6(3,5)-pyrazola-9(3,1)-naphthalenacyclotridecaphane-1^2-carboxylic acid] | – | < 1 | 360 | 2400 | 20.7 |
| Cn1nc2cc1CSc1cc(c3cc(Cl)ccc3c1)OCCCc1c(C(=O)O)n(C)c3c(c(Cl)ccc13)-c1c(nn3c1COCC3)CSC2 [compound 18, (Z)-1^6,9^7-dichloro-1^1,6^1-dimethyl-2^6,2^7-dihydro-1^1H,2^4H,6^1H-10-oxa-4,8-dithia-2(3,2)-pyrazolo[5,1-c][1,4]oxazina-1(7,3)-indola-6(3,5)-pyrazola-9(3,1)-naphthalenacyclotridecaphane-1^2-carboxylic acid] | – | < 1 | 1620 | 3490 | 19 |
| Cn1nc2cc1CSc1cc(c3ccccc3c1)OCCCc1c(C(=O)O)n(C)c3c(c(Cl)ccc13)-c1c(nn3c1CSCC3)CSC2 [compound 21, (Z)-1^6-chloro-1^1,6^1-dimethyl-2^6,2^7-dihydro-1^1H,2^4H,6^1H-10-oxa-4,8-dithia-2(3,2)-pyrazolo[5,1-c][1,4]thiazina-1(7,3)-indola-6(3,5)-pyrazola-9(3,1)-naphthalenacyclotridecaphane-1^2-carboxylic acid] | – | 3 (≈ 4.19 µM) | 116 | 291 | 15.8 |
| Cn1nc2cc1CSc1cc(c3ccccc3c1)OCCCc1c(C(=O)O)n(C)c3c(c(Cl)ccc13)-c1c(nn3c1CCCCC3)CSC2 [compound 23, (Z)-1^6-chloro-1^1,6^1-dimethyl-2^5,2^6,2^7,2^8-tetrahydro-1^1H,2^4H,6^1H-10-oxa-4,8-dithia-2(3,2)-pyrazolo[1,5-a]azepina-1(7,3)-indola-6(3,5)-pyrazola-9(3,1)-naphthalenacyclotridecaphane-1^2-carboxylic acid] | – | < 1 | 100 | 195 | 10 |
| Cc1c2c(nn1C)CN(S(C)(=O)=O)Cc1cc(n(C)n1)CSc1cc(c3ccc(F)cc3c1)OCCCc1c(C(=O)O)n(C)c3c-2c(Cl)ccc13 [compound 45, (Z)-1^6-chloro-9^6-fluoro-1^1,2^1,2^5,6^1-tetramethyl-4-(methylsulfonyl)-1^1H,2^1H,6^1H-10-oxa-8-thia-4-aza-1(7,3)-indola-2(4,3),6(3,5)-dipyrazola-9(3,1)-naphthalenacyclotridecaphane-1^2-carboxylic acid] | >400 | – | – | – | – |
| Cc1c2c(nn1C)CN(S(C)(=O)=O)Cc1cc(n(C)n1)CSc1cc(c3ccc(F)cc3c1)OCCCc1c(C(=O)O)n(C)c3c-2c(Cl)ccc13 [compound 47, (S)-(Z)-1^6-chloro-9^6-fluoro-1^1,2^1,2^5,6^1-tetramethyl-4-(methylsulfonyl)-1^1H,2^1H,6^1H-10-oxa-8-thia-4-aza-1(7,3)-indola-2(4,3),6(3,5)-dipyrazola-9(3,1)-naphthalenacyclotridecaphane-1^2-carboxylic acid] | <1 | – | – | – | – |
| Cc1c2c(nn1C)CN(S(C)(=O)=O)Cc1cc(n(C)n1)CSc1cc(c3ccc(F)cc3c1)OCCCc1c(C(=O)O)n(C)c3c-2c(Cl)ccc13 [compound 48, (R)-(Z)-1^6-chloro-9^6-fluoro-1^1,2^1,2^5,6^1-tetramethyl-4-(methylsulfonyl)-1^1H,2^1H,6^1H-10-oxa-8-thia-4-aza-1(7,3)-indola-2(4,3),6(3,5)-dipyrazola-9(3,1)-naphthalenacyclotridecaphane-1^2-carboxylic acid] | 3 | – | – | – | – |
